Assay results published in ChEMBL document CHEMBL5360622, “Leucettinibs, a Class of DYRK/CLK Kinase Inhibitors Inspired by the Marine Sponge Natural Product Leucettamine B” (J Med Chem, 2023).

Experiments:
[1] = target: T1, Dual specificity tyrosine-phosphorylation-regulated kinase 4 (Homo sapiens, UniProt Q9NR20)
T1 sequence (Q9NR20 whole entry): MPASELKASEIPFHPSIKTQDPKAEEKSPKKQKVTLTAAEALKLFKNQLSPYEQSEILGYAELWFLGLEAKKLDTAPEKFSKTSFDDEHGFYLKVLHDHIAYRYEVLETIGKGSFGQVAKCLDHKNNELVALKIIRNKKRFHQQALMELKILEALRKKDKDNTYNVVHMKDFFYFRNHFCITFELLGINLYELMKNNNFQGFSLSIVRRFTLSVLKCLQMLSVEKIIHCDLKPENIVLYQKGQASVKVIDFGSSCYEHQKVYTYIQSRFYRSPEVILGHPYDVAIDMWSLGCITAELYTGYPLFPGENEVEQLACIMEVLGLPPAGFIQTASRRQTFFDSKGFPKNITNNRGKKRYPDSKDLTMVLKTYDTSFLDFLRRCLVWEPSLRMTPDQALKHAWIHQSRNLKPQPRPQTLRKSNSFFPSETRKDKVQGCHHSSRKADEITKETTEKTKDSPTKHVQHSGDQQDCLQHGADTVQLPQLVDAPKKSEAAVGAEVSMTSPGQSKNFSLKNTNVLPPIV

[2] = target: Glycogen synthase kinase-3 beta (Homo sapiens, UniProt P49841); format: cell-based, Sf9
Chain of Glycogen synthase kinase-3 beta (P49841 whole entry): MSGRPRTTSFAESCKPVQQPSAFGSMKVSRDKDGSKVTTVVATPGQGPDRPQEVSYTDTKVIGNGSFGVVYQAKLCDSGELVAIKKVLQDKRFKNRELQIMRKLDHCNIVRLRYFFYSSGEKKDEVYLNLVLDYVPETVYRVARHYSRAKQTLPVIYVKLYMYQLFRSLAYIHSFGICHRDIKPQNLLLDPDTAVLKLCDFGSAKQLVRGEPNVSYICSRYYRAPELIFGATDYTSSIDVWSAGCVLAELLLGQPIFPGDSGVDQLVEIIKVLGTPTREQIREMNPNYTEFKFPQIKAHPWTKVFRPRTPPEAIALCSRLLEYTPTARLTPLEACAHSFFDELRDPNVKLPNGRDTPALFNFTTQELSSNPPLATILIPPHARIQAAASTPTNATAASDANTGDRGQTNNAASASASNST

[3] = target: Dual specificity protein kinase CLK2 (Homo sapiens, UniProt P49760)
Chain of Dual specificity protein kinase CLK2 (P49760 whole entry): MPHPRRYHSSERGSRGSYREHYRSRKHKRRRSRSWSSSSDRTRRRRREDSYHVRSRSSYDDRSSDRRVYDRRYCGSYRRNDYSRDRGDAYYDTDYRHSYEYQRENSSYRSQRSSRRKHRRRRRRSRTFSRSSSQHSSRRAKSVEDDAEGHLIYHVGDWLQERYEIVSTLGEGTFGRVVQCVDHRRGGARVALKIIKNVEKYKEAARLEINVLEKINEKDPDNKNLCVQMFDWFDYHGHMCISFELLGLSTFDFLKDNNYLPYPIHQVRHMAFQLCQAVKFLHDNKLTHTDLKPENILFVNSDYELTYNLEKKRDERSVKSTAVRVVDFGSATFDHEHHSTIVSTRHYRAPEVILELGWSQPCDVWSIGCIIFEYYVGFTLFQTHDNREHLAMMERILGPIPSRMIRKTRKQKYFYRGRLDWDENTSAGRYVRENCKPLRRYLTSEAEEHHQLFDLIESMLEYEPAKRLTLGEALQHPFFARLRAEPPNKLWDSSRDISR

[4] = target: Dual specificity protein kinase CLK4 (Homo sapiens, UniProt Q9HAZ1)
Chain of Dual specificity protein kinase CLK4 (Q9HAZ1 whole entry): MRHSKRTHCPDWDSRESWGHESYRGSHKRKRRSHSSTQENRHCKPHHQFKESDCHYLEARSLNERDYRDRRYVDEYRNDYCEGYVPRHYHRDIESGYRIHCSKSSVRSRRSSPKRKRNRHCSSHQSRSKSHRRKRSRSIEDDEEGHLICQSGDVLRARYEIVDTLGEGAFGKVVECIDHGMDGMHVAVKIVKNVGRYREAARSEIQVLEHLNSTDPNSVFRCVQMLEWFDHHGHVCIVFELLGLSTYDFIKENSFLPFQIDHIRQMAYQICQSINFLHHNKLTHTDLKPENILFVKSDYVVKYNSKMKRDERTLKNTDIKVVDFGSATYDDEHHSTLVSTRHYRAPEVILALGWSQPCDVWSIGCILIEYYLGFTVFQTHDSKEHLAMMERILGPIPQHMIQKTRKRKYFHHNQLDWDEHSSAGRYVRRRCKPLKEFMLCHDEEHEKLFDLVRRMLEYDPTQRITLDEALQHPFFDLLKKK

[5] = target: Dual specificity protein kinase CLK3 (Homo sapiens, UniProt P49761); format: cell-based, Sf9
Chain of Dual specificity protein kinase CLK3 (P49761 whole entry, canonical isoform): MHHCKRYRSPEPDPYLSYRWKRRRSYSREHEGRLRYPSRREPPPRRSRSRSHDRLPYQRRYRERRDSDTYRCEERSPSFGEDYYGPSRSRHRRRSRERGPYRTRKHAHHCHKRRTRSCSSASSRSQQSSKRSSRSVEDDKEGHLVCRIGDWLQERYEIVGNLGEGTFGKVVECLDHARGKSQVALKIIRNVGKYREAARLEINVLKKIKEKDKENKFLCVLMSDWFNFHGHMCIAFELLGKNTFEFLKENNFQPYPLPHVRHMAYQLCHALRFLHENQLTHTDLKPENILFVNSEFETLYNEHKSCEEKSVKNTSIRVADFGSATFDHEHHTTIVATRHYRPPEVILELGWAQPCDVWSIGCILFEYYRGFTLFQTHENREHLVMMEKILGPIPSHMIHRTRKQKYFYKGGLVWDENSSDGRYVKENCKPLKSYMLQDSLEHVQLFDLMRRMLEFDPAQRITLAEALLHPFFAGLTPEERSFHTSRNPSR

[6] = target: Casein kinase I isoform epsilon (Homo sapiens, UniProt P49674)
Chain of Casein kinase I isoform epsilon (P49674 whole entry, canonical isoform): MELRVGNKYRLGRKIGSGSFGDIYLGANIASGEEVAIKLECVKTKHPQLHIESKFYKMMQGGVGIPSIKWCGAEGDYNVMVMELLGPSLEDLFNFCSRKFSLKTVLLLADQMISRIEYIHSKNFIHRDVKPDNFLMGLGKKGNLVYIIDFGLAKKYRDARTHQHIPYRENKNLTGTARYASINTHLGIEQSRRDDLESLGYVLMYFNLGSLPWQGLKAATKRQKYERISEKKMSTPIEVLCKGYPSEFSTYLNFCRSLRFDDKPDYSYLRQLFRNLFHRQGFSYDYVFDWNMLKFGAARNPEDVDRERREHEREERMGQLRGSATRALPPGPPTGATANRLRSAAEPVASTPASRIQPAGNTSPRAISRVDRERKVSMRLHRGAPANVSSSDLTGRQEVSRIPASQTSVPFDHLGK

[7] = target: T2, Dual specificity tyrosine-phosphorylation-regulated kinase 3 (Homo sapiens, UniProt O43781)
T2 sequence (O43781 whole entry): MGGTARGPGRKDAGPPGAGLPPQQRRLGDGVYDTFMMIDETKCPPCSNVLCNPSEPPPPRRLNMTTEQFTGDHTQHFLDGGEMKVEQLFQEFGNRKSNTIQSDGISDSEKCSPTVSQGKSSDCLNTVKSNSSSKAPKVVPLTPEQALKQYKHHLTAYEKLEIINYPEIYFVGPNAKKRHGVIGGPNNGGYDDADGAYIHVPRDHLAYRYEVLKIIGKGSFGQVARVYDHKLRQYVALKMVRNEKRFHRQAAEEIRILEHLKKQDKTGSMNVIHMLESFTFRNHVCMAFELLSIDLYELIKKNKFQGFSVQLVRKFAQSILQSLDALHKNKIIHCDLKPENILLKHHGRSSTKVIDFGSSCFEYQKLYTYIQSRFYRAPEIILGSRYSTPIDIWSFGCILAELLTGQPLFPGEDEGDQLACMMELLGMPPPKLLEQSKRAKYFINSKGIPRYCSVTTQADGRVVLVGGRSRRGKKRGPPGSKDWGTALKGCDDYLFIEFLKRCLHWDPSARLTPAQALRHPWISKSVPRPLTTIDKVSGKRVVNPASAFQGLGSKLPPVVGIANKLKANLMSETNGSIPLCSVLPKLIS

[8] = target: Cyclin-dependent kinase 5/CDK5 activator 1 (Homo sapiens, UniProt Q00535); format: cell-based, Sf9
Chain of Cyclin-dependent kinase 5/CDK5 activator 1 (Q00535 whole entry): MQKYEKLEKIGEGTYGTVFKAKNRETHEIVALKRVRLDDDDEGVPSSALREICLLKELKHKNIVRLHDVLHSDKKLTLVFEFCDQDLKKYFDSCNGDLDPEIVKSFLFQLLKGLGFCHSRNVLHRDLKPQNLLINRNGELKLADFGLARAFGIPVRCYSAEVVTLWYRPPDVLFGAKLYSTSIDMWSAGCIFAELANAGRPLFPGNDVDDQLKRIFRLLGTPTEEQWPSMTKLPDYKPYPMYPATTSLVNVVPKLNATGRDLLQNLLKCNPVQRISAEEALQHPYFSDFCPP
Chain of Cyclin-dependent kinase 5/CDK5 activator 1 (Q15078 whole entry, further chain): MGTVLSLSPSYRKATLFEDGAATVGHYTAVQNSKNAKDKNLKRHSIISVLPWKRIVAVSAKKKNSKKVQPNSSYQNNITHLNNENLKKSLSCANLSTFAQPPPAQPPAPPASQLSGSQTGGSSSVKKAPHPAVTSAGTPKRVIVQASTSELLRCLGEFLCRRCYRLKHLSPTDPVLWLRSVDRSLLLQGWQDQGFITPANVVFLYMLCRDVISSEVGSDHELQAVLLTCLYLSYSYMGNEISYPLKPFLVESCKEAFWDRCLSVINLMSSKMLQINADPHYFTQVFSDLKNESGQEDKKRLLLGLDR

[9] = target: T3, Dual specificity tyrosine-phosphorylation-regulated kinase 2 (Homo sapiens, UniProt Q92630)
T3 sequence (Q92630 whole entry): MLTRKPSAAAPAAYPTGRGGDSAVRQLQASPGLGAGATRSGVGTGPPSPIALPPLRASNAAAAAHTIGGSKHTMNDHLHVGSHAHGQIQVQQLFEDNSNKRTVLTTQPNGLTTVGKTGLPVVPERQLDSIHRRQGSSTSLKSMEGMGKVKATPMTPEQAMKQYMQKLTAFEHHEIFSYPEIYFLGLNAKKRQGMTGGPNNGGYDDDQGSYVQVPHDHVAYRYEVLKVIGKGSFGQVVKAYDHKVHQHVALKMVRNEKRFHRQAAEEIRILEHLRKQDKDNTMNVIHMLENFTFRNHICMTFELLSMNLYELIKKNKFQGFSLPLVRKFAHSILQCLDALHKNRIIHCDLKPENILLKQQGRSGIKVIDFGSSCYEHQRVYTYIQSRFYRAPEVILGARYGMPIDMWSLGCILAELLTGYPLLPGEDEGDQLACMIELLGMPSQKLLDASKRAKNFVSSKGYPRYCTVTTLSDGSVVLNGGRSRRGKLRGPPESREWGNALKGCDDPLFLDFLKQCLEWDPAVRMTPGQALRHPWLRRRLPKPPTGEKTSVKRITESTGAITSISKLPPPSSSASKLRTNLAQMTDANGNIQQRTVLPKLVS

SMILES	IC50 [1] [nM]	IC50 [2] [nM]	IC50 [3] [nM]	IC50 [4] [nM]	IC50 [5] [nM]	IC50 [6] [nM]	IC50 [7] [nM]	IC50 [8] [nM]	IC50 [9] [nM]
CC(C)(C)C(=O)OC12CC3CC(CC(NC4=N/C(=C\c5ccc6ncsc6c5)C(=O)N4)(C3)C1)C2	> 10000	> 10000	1310	436	> 10000	> 10000	> 10000	> 10000	> 10000
O=C1NC(NC2COC2)=N/C1=C\c1ccc2ncsc2c1	2160	5920	614	14	491	> 10000	1430	> 10000	574
CC(NC1=N/C(=C\c2ccc3ncsc3c2)C(=O)N1)C12CC3CC(CC(C3)C1)C2 (racemic)	> 10000	> 10000	1320	210	5110	> 10000	> 10000	> 10000	> 10000
Cc1nc2ccc(/C=C3\N=C(NC4CCCCCC4)NC3=O)cc2s1	> 10000	> 10000	5630	34	> 10000	> 10000	3260	> 10000	2280
CN1CCC(CNC2=N/C(=C\c3ccc4ncsc4c3)C(=O)N2)CC1	> 10000	> 10000	3660	1500	> 10000	> 10000	1590	> 10000	> 10000
CC(C)(C)NC(=O)OC12CC3CC(CC(NC4=N/C(=C\c5ccc6ncsc6c5)C(=O)N4)(C3)C1)C2	127	1800	35	11	709	5000	299	> 10000	147
CC1(C)CNC(=O)C1NC1=N/C(=C\c2ccc3ncsc3c2)C(=O)N1 (racemic)	3470	> 10000	923	28	4480	> 10000	2020	> 10000	854
Cc1ccc(CNC2=N/C(=C\c3ccc4ncsc4c3)C(=O)N2)o1	1630	2810	127	24	722	–	1800	> 10000	1890
COC(=O)[C@H](CC(C)C)NC1=N/C(=C\c2ccc3ncsc3c2)C(=O)N1	821	4100	219	17	1700	–	1540	> 10000	903
COC(=O)[C@@H](CC(C)C)NC1=N/C(=C\c2ccc3ncsc3c2)C(=O)N1	2260	1340	378	34	852	–	5070	> 10000	2370
O=C1NC(Nc2ncccn2)=N/C1=C\c1ccc2ncsc2c1	–	7740	627	34	2260	> 10000	4030	> 10000	2390
O=C1NC(NCC2CCOCC2)=N/C1=C\c1ccc2ncsc2c1	1290	> 10000	94	12	698	–	1130	> 10000	811
